# Test results taken from a melting point compilation (Tetko et al.; mined from patent text by program, amines drawn as free bases though some values may be those of a salt).
row,Compound,melting point
1,O=C(O)Cc1ccc2oc(-c3ccccc3)nc2c1,175 °C
2,O=C(O)CCc1c(C=C2C(=O)Nc3ccc(Br)cc32)[nH]c2c1CCCC2,286 to 289 °C
3,OCc1cnn(-c2ccc(OC(F)(F)F)cc2)c1,73 to 74 °C
4,COc1ccc(C2=NN(C3CCCCCC3)C(=O)[C@H]3CC=CC[C@@H]23)cc1OC(F)F (relative stereo),83 °C
5,COc1ccc2c(c1)N1CCOCC1C[N+]([O-])=C2c1ccco1 (stereo not given),183 to 186 °C
6,COc1ccc(C2=CC(O)CC2)cc1OC1CCCC1 (stereo not given),105 to 107 °C
7,N#Cc1ccc(N2CCN(Cc3cnc4c(c3)NC(=O)[C@@H]3CCCN43)CC2)nc1,252 to 256 °C
8,CCC(=O)c1ccc(OC)c(O)c1,91 to 92 °C
9,COC(=O)c1ccc2c(c1)NC(=O)c1cccnc1N2,344 to 349 °C
10,CN1C(=O)OCCc2cc(Nc3ncc(Cl)c(Nc4c(F)cccc4OCCO)n3)ccc21,199 to 201 °C
11,CC(=O)c1cc([N+](=O)[O-])c(Cl)c([N+](=O)[O-])c1,86 to 86.5 °C
12,CN(C)CCOc1ccc(Nc2nccc(-c3cccnc3)n2)cc1,108 to 110 °C
13,COC1=CC(=O)C=CC1=O,141 to 143 °C
14,O=[N+]([O-])C=C1NCCN1Cc1ccc(F)nc1,139 to 142 °C
15,Cc1cc(Cl)ccc1NC=NO,171 to 172 °C
16,CC(Oc1ccc(Cl)cc1)c1nnc(N2C(=O)N(C)CC2O)s1 (stereo not given),147 to 149 °C
17,O=C(CC1CCC1)N[C@H]1CC[C@H](CCN2CCN(c3nccc4c3CCO4)CC2)CC1,193 °C

# Second part, the molecule after the results:
row,melting point,Compound
1,198 to 201 °C,COc1ccc(C2=NN(c3ccc(C4=NNC(=O)CC4C)cc3)C(=O)C3CC=CCC23)cc1Cl (stereo not given)
2,> 200 °C,CCOC(=O)C(C)=Cc1ccc(Sc2ccncc2)c(C(F)(F)F)c1
3,127 to 129 °C,COc1ccc2c(ncn2C(=O)OC(C)(C)C)c1CBr
4,85 to 87 °C,OCc1cccn2cc(-c3ccccc3)nc12
5,230 to 232 °C,COC(=O)[C@H](Cc1ccc(NC(=O)c2c(Cl)cccc2Cl)cc1)NC(=O)c1ccc(C(=O)Nc2cccc(O)c2)cc1Cl
6,249 to 251 °C,N#CCc1nc(N)nc(N)c1-c1ccc(Cl)cc1Cl
7,76 to 78 °C,CCOC(=O)c1c(CCN(CC)CC)nc2cc(OC)c(OC)cc2c1-c1ccc(OC)c(OC)c1
8,105 to 106 °C,CC(C)c1cc(C2SCC(=O)N2CCCCl)cc(C(C)C)c1O (stereo not given)
9,> 60 °C,CCCCc1nn(-c2cc([N+](=O)[O-])ccc2Cl)c(C(=O)OCC)c1Cc1ccc(-c2ccccc2S(=O)(=O)NC(=O)c2ccccc2Cl)cc1
10,176 to 177 °C,Cc1nc2c(cc1CCCO)c(=O)c(C(=O)NCc1ccc(Cl)cc1)cn2C
11,205 to 209 °C,O=C(O)c1ccc2occ(-c3ccccc3)c2c1
12,184 to 186 °C,COc1ccc2c(c1)c1c(n2C)C(=O)NCCO1
13,181 to 183 °C,CC(=O)c1cccc(Nc2ccc3ccccc3n2)c1
14,219 to 220 °C,CCc1cc(Br)c2c(c1)NC(=O)C2=O
15,194 to 196 °C,CC1(C)CON(Cc2ccc(NC(=O)Cc3ccccc3C(=O)O)cc2Cl)C1=O
16,173 to 174 °C,CCOCc1nc2c(N)nc3ccccc3c2n1CCCCS(=O)(=O)N(C)C
17,110 to 112 °C,Cc1cc(O)c(F)cc1[N+](=O)[O-]
18,108 °C,FC(F)(F)c1nnnn1-c1cccc2ccccc12
19,108 to 110 °C,CN1CCN=C1CC(c1ccccc1)c1ccccc1
20,114 °C,CCC(CC)COc1ccc(S(=O)(=O)C2(C(=O)NO)CCN(Cc3ccccc3)CC2)cc1
21,258 to 259 °C,Cc1cc2c(C(=O)C3=C(O)C4CCC(C4)C3=O)ccc(S(C)(=O)=O)c2o1 (stereo not given)
22,167 to 171 °C,CC(C)C(NC(=O)c1ccccn1)C(=O)NC(Cc1ccccc1)C(O)C(O)C(Cc1ccccc1)NC(=O)C(NC(=O)c1ccccn1)C(C)C (stereo not given)
23,209 to 210 °C,CNC(=S)n1nc(C=Cc2ccc(Cl)cc2)nc1N
